According to ChEMBL document CHEMBL1141842, “Amathaspiramides A-F, novel brominated alkaloids from the marine bryozoan amathia wilsoni” (J Nat Prod, 1999):
Active and inactive are the calls of the source. No cut-off for these calls is given here.

How the values were obtained:
P388 = assay: Cytotoxicity against mouse P388 cells; type: functional, cell-based
Bacillus subtilis = assay: Antibacterial activity against Bacillus subtilis at 60 ug/disk; type: functional; conditions: for zone of inhibition at 60 µg/disc: read-out: IZ
[1] = tested on: Trichophyton mentagrophytes; assay: Antifungal activity against Trichophyton mentagrophytes at 60 ug/disk; type: functional; conditions: for zone of inhibition at 60 µg/disc: read-out: IZ
Poliovirus 1 = assay: Antiviral activity against Human poliovirus 1 at 40 ug/well; type: functional, organism-based

For `COc1cc([C@H]2[C@@H](O)N(C)C(=O)[C@]23CCCN3C)c(Br)cc1Br` [AMATHASPIRAMIDE A], the IC50 (P388) was > 12.5 µg/mL, the zone of inhibition at 60 µg/disc (Bacillus subtilis) was 1 mm and the zone of inhibition at 60 µg/disc [1] was 1 mm.
In the case of `COc1cc([C@H]2[C@@H](O)N(C)C(=O)[C@]23CCCN3)c(Br)cc1Br` [AMATHASPIRAMIDE C], the IC50 (P388) is reported as > 12.5 µg/mL, the Activity (Poliovirus 1) is reported as “inactive” and the Activity (Bacillus subtilis) is reported as “inactive”. The Activity [1] was “inactive”.
In the case of `COc1cc([C@H]2[C@@H](O)N(C)C(=O)[C@]23CCC=N3)c(Br)cc1Br` [AMATHASPIRAMIDE E], the IC50 (P388) is reported as > 12.5 µg/mL, the Activity (Poliovirus 1) is reported as “Active” and the zone of inhibition at 60 µg/disc (Bacillus subtilis) is reported as 1 mm. For the same compound, the zone of inhibition at 60 µg/disc [1] was 1 mm.
In the case of `COc1cc([C@H]2[C@@H](O)N(C)C(=O)[C@]23CCC(=O)N3C)c(Br)cc1Br` [AMATHASPIRAMIDE B], the IC50 (P388) is reported as > 12.5 µg/mL, the Activity (Poliovirus 1) is reported as “inactive” and the Activity (Bacillus subtilis) is reported as “inactive”. The Activity [1] was “inactive”.
